Results as given in patent US8569495B2, “Anthelmintic agents and their use” (Intervet International B.V., priority 2007, dated 2013).

system: Ascaridia galli (L3) and Oesophagostomum dentatum (L3 and L4); assay: In vitro anthelmintic activity against larval stages of Ascaridia galli and Oesophagostomum dentatum (MEC); conditions: Ascaridia galli, in vitro; A. galli L3, O. dentatum L3 and L4; 20 larvae per well; microscopic examination; read-out: minimum effective concentration (MEC) against one or more of the tested nematodes

Row | SMILES | minimal effective concentration [µM]
1 | CN(CC1CCN(c2ccc(C(C)(C)C)cc2)CC1)C(=O)C1CCC(Nc2ccc([N+](=O)[O-])c(C(F)(F)F)c2)CC1 (centres unmarked) [Example 132] | < 1
2 | O=C(COC1CCC(Nc2ccc([N+](=O)[O-])c(C(F)(F)F)c2)CC1)N1CCCN(c2ccc(C(F)(F)F)cc2)CC1 (centres unmarked) [Example 149] | < 1
3 | O=C(NCC1CCC(Nc2ccc([N+](=O)[O-])c(C(F)(F)F)c2)CC1)N1CCN(c2ccc(C(F)(F)F)cc2)CC1 (centres unmarked) [Example 145] | < 1
4 | CC(C)(C)c1ccc(N2CCN(CCOC3CCC(Nc4ccc([N+](=O)[O-])c(C(F)(F)F)c4)CC3)CC2)cc1 (centres unmarked) [Example 116] | < 1
5 | Cc1ccc(N2CCN(C(=S)COC3CCC(Nc4ccc([N+](=O)[O-])c(C(F)(F)F)c4)CC3)CC2)cc1 (centres unmarked) [Example 222] | < 1
6 | O=C(COC1CCC(Nc2ccc(OC(F)(F)F)c(C(F)(F)F)c2)CC1)N1CCN(c2ccc(Cl)cc2)CC1 (centres unmarked) [Example 90] | < 1
7 | CC(C)(C)c1ccc(N2CCN(C(=O)NCC3CCC(Nc4ccc([N+](=O)[O-])c(C(F)(F)F)c4)CC3)CC2)cc1 (centres unmarked) [Example 143] | < 1
8 | CC(C)(C)c1ccc(N2CCC(CNC(=O)C3CCC(Nc4ccc([N+](=O)[O-])c(C(F)(F)F)c4)CC3)CC2)cc1 (centres unmarked) [Example 122] | < 1
9 | N#Cc1ccc(NC2CCC(OCC(=O)N3CCN(c4ccc(Cl)cc4)CC3)CC2)cc1C(F)(F)F (centres unmarked) [Example 88] | < 1
10 | O=C(NCC1CCN(c2ccc(C(F)(F)F)cc2)CC1)C1CCC(Nc2ccc([N+](=O)[O-])c(C(F)(F)F)c2)CC1 (centres unmarked) [Example 120] | < 1
11 | Cc1ccc(N2CCC(CNC(=O)C3CCC(Nc4ccc([N+](=O)[O-])c(C(F)(F)F)c4)CC3)CC2)cc1 (centres unmarked) [Example 123] | < 1
12 | CCOc1ccc(N2CCC(CN(C)C(=O)C3CCC(Nc4ccc([N+](=O)[O-])c(C(F)(F)F)c4)CC3)CC2)cc1 (centres unmarked) [Example 133] | < 1
13 | O=C(NCC1CCC(Nc2ccc([N+](=O)[O-])c(C(F)(F)F)c2)CC1)C1CCN(c2ccc(F)cc2)CC1 (centres unmarked) [Example 113] | < 7
14 | COc1cc(N[C@H]2CC[C@H](OCC(=O)N3CCN(c4ccc(C(F)(F)F)cc4)CC3)CC2)ccc1[N+](=O)[O-] [Example 234] | < 1
15 | Cc1ccc(N2CCN(C(=O)COC3CCC(Nc4ccc([N+](=O)[O-])c(C(F)(F)F)c4)CC3)CC2)c(C)c1 (centres unmarked) [Example 67] | < 1
16 | CN(CC1CCC(Nc2ccc([N+](=O)[O-])c(C(F)(F)F)c2)CC1)C(=O)N1CCN(c2ccc(C(C)(C)C)cc2)CC1 (centres unmarked) [Example 141] | < 1
17 | O=C(COC1CCC(Nc2ccc([N+](=O)[O-])c(C(F)(F)F)c2)CC1)N1CCCN(c2ccc(Cl)cc2)CC1 (centres unmarked) [Example 150] | < 1
18 | Cc1cc(N[C@H]2CC[C@H](OCC(=O)N3CCN(c4ccc(Cl)cc4)CC3)CC2)ccc1[N+](=O)[O-] [Example 241] | < 1
19 | O=C(NCC1CCC(Nc2ccc([N+](=O)[O-])c(C(F)(F)F)c2)CC1)C1CCN(c2ccc(Cl)cc2)CC1 (centres unmarked) [Example 107] | < 7
20 | O=C(COC1CCC(Nc2ccc([N+](=O)[O-])c(C(F)(F)F)c2)CC1)N1CCC(c2ccc(Cl)cc2)CC1 (centres unmarked) [Example 73] | < 1
21 | N#Cc1ccc(NC2CCC(OCC(=S)N3CCN(c4ccc(Cl)cc4)CC3)CC2)cc1C(F)(F)F (centres unmarked) [Example 209] | < 1
22 | CN(CC1CCC(Nc2ccc([N+](=O)[O-])c(C(F)(F)F)c2)CC1)C(=O)C1CCN(c2ccc(C(F)(F)F)cc2)CC1 (centres unmarked) [Example 111] | < 1
23 | O=C(COC1CCC(Nc2ccc([N+](=O)[O-])c(C(F)(F)F)c2)CC1)N1CC2CC1CN2c1ccc(C(F)(F)F)cc1 (centres unmarked) [Example 146] | < 1

same assay, conditions: Ascaridia galli, in vitro; A. galli L3, O. dentatum L3 and L4; 20 larvae per well; microscopic examination; read-out: minimum effective concentration (MEC) against two or more of the tested nematodes

Row | SMILES | minimal effective concentration [µM]
24 | CN(CC1CCN(c2ccc(C(C)(C)C)cc2)CC1)C(=O)C1CCC(Nc2ccc([N+](=O)[O-])c(C(F)(F)F)c2)CC1 (centres unmarked) [Example 132] | < 1
25 | CN(CC1CCN(c2ccc(Cl)cc2)CC1)C(=O)C1CCC(Nc2ccc([N+](=O)[O-])c(C(F)(F)F)c2)CC1 (centres unmarked) [Example 136] | < 1
26 | O=C(COC1CCC(Nc2ccc(Cl)c(C(F)(F)F)c2)CC1)N1CCN(c2ccc(OCc3ccccc3)cc2)CC1 (centres unmarked) [Example 97] | < 1
27 | O=C(CC[C@H]1CC[C@H](Nc2ccc([N+](=O)[O-])c(C(F)(F)F)c2)CC1)N1CCN(c2ccc(C(F)(F)F)cc2)CC1 [Example 41, 3-(trans-4-(4-nitro-3-trifluoromethyl-phenylamino)-cyclohexyl)-1-(4-(4-trifluoromethyl-phenyl)-piperazin-1-yl)-propan-1-one] | < 1
28 | CCCc1ccc(C2CCN(C(=O)COC3CCC(Nc4ccc(C#N)c(C(F)(F)F)c4)CC3)CC2)cc1 (centres unmarked) [Example 168] | < 1
29 | O=C(COC1CCC(Nc2ccc([N+](=O)[O-])c(C(F)(F)F)c2)CC1)N1CCCN(c2ccc(C(F)(F)F)cc2)CC1 (centres unmarked) [Example 149] | < 1
30 | O=C(NCC1CCC(Nc2ccc([N+](=O)[O-])c(C(F)(F)F)c2)CC1)N1CCN(c2ccc(C(F)(F)F)cc2)CC1 (centres unmarked) [Example 145] | < 1
31 | N#Cc1ccc(N[C@H]2CC[C@H](OCC(=O)N3CCN(c4ccc(OCc5ccccc5)cc4)CC3)CC2)cc1C(F)(F)F [Example 25, 4-(trans-4-{2-[4-(4-benzyloxy-phenyl)-piperazin-1-yl]-2-oxoethoxy}-cyclohexylamino)-2-trifluoromethyl-benzonitrile] | < 1
32 | CC(C)COc1ccc(N2CCN(C(=O)COC3CCC(Nc4ccc([N+](=O)[O-])c(C(F)(F)F)c4)CC3)CC2)cc1 (centres unmarked) [Example 82] | < 1
33 | CC(C)(C)c1ccc(N2CCN(C(=O)COC3C=C[C@@H](Nc4ccc([N+](=O)[O-])c(C(F)(F)F)c4)C3)CC2)cc1 (some centres unmarked) [Example 259] | < 1
34 | CC(C)(C)c1ccc(N2CCC(C(=O)NC[C@H]3CC[C@H](Nc4ccc([N+](=O)[O-])c(C(F)(F)F)c4)CC3)CC2)cc1 [Example 54, 1-(4-tert-butyl-phenyl)-N-[trans-4-(4-nitro-3-trifluoromethyl-phenylamino)-cyclohexylmethyl]-piperidine-4-carboxamide] | < 1
35 | CC(C)(C)c1ccc(N2CCC(CNC(=O)C3CCC(Nc4ccc([N+](=O)[O-])c(C(F)(F)F)c4)CC3)CC2)cc1 (centres unmarked) [Example 122] | < 1
36 | CC(C)(C)c1ccc(C2CCN(C(=O)COC3CCC(Nc4ccc(C#N)c(C(F)(F)F)c4)CC3)CC2)cc1 (centres unmarked) [Example 166] | < 1
37 | O=C(NCC1CCN(c2ccc(C(F)(F)F)cc2)CC1)C1CCC(Nc2ccc([N+](=O)[O-])c(C(F)(F)F)c2)CC1 (centres unmarked) [Example 120] | < 1
38 | CC(C)(C)c1ccc(N2CCN(C(=S)COC3CCC(Nc4ccc(OC(F)(F)F)c(C(F)(F)F)c4)CC3)CC2)cc1 (centres unmarked) [Example 202] | < 1
39 | COc1cc(N[C@H]2CC[C@H](OCC(=O)N3CCN(c4ccc(C(C)(C)C)cc4)CC3)CC2)ccc1[N+](=O)[O-] [Example 249] | < 1
40 | CCOc1ccc(N2CCC(CN(C)C(=O)C3CCC(Nc4ccc([N+](=O)[O-])c(C(F)(F)F)c4)CC3)CC2)cc1 (centres unmarked) [Example 133] | < 1
41 | O=C(COC1CCC(Nc2ccc([N+](=O)[O-])c(C(F)(F)F)c2)CC1)N1CCN(c2ccc(C(F)(F)F)cc2)C(=O)C1 (centres unmarked) [Example 158] | < 1
42 | O=[N+]([O-])c1ccc(NC2CCC(CCC(=S)N3CCN(c4ccc(C(F)(F)F)cc4)CC3)CC2)cc1C(F)(F)F (centres unmarked) [Example 213] | < 1
43 | O=C(COC1CCC(Nc2ccc([N+](=O)[O-])c(C(F)(F)F)c2)CC1)N1CCN(c2ccc(F)cc2F)CC1 (centres unmarked) [Example 71] | < 1
44 | O=C(COC1CCC(Nc2ccc([N+](=O)[O-])c(C(F)(F)F)c2)CC1)N1CCCN(c2ccc(Cl)cc2)CC1 (centres unmarked) [Example 150] | < 1
45 | CSc1ccc(NC2CCN(C(=O)COC3CCC(Nc4ccc([N+](=O)[O-])c(C(F)(F)F)c4)CC3)CC2)cc1C(F)(F)F (centres unmarked) [Example 188] | < 1
46 | O=C(COC1CCC(Nc2ccc([N+](=O)[O-])c(C(F)(F)F)c2)CC1)N1CC2CN(c3ccc(Cl)cc3)CC2C1 (centres unmarked) [Example 262] | < 1
47 | CC(C)(C)c1ccc(N2CCN(C(=O)CO[C@H]3CC[C@H](Nc4ccc([N+](=O)[O-])c(C#N)c4)CC3)CC2)cc1 [Example 248] | < 1
48 | O=C(COC1CCC(Nc2ccc([N+](=O)[O-])c(C(F)(F)F)c2)CC1)N1CCN(c2ccc(Cl)cc2)CC1 (centres unmarked) [Example 63] | < 1
49 | CC(C)(C)c1ccc(N2CCN(C(=O)CO[C@H]3CC[C@H](Nc4ccc(C#N)c(C(F)(F)F)c4)CC3)CC2)cc1 [Example 27, 4-(trans-4-{2-[4-(4-tert-butyl-phenyl)-piperazin-1-yl]-2-oxo-ethoxy}-cyclohexylamino)-2-trifluoromethyl-benzonitrile] | < 1
50 | CC(C)(C)c1ccc(N2CCN(C(=O)COC3CCC(Nc4ccc(SC(F)(F)F)cc4)CC3)CC2)cc1 (centres unmarked) [Example 103] | < 1
51 | CC(C)(C)c1ccc(N2CCN(C(=S)COC3CCC(Nc4ccc(Cl)c(C(F)(F)F)c4)CC3)CC2)cc1 (centres unmarked) [Example 215] | < 1

same assay, conditions: Ascaridia galli, read-out: minimum effective concentration (MEC) against one or more of the tested nematodes, in vitro; A. galli L3, O. dentatum L3 and L4; 20 larvae per well; microscopic examination

Row | SMILES | minimal effective concentration [µM]
52 | O=C(COC1CCC(Nc2ccc([N+](=O)[O-])c(C(F)(F)F)c2)CC1)NCCCNc1ccc(C(F)(F)F)cc1 (centres unmarked) [Example 152] | < 1

same assay, conditions: Ascaridia galli, read-out: minimum effective concentration (MEC) against two or more of the tested nematodes, in vitro; A. galli L3, O. dentatum L3 and L4; 20 larvae per well; microscopic examination

Row | SMILES | minimal effective concentration [µM]
53 | CN(c1ccc([N+](=O)[O-])c(C(F)(F)F)c1)C1CCC(OCC(=S)N2CCN(c3ccc(C(F)(F)F)cc3)CC2)CC1 (centres unmarked) [Example 218] | < 1
54 | O=C(CO[C@H]1CC[C@H](Nc2ccc([N+](=O)[O-])c(C(F)(F)F)c2)CC1)N1CCC(c2ccc(F)cc2F)CC1 [Example 22, 1-[4-(2,4-difluoro-phenyl)-piperidin-1-yl]-2-[trans-4-(4-nitro-3-trifluoromethyl-phenylamino)-cyclohexyloxy]-ethanone] | < 1
55 | O=C(CO[C@H]1CC[C@H](Nc2ccc([N+](=O)[O-])c(C(F)(F)F)c2)CC1)N1CCN(c2ccc(OCc3ccc(C(F)(F)F)cc3)cc2)CC1 [Example 20, 2-[trans-4-(4-nitro-3-trifluoromethyl-phenylamino)-cyclohexyloxy]-1-{4-[4-(4-trifluoromethyl-benzyloxy)-phenyl]-piperazin-1-yl}-ethanone] | < 1

same assay, conditions: in vitro; A. galli L3, O. dentatum L3 and L4

Row | SMILES | activity against the tested nematodes
56 | O=C(CO[C@H]1CC[C@H](Nc2ccc([N+](=O)[O-])cc2C(F)(F)F)CC1)N1CCN(c2ccccc2)CC1 [Example 240] | no detectable activity
